Laboratory results as given in paper PMC8052950 (Journal of medicinal chemistry, 2021).
Counter-ions that a name gives are not always drawn.

What was measured:
[1] = molecular target: WVpro (West Nile virus protease) (West Nile virus, UniProt Q9Q6P4); assay: WVpro enzyme inhibition assay; type: biochemical
ZIKV-FLR = assay: Cellular anti-ZIKV activity in U87 cells; type: cell-based, Zika virus; details: for EC68 against ZIKV: in cells, values printed in nM in the text
[2] = test system: 5 selected human proteases; details: at 10 μM; cited from earlier work
ZIKV = details: cited from earlier work
ZIKV strain HN16 = details: comparable activities; cited from earlier work
[3] = test system: dengue virus (serotype-2, strain K0049); details: comparable activities; cited from earlier work
[4] = molecular target: DV2pro (protease of dengue serotype-2) (Dengue virus type 2, UniProt P29990); assay: DV2pro enzyme inhibition assay; type: biochemical, dengue virus serotype-2; details: read-out: IC50 against DV2pro; standard errors <30%
Sequence of DV2pro (protease of dengue serotype-2) (P29990 1476-1645): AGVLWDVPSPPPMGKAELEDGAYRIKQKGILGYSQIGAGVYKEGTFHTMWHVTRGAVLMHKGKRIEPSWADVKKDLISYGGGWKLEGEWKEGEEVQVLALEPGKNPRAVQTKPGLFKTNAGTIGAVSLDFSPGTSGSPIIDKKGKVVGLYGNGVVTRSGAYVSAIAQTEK
Sequence of DV2pro (protease of dengue serotype-2) (P29990 1394-1440): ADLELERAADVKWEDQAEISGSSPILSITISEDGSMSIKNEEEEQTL

Sequence of WVpro (West Nile virus protease) (Q9Q6P4 1424-1470): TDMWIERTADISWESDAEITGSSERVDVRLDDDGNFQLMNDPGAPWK
Sequence of WVpro (West Nile virus protease) (Q9Q6P4 1506-1675): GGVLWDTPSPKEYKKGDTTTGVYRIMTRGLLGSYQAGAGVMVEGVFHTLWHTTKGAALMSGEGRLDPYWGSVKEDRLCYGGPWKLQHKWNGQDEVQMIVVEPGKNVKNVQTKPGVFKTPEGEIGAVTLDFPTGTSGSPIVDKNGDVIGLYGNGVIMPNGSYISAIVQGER

In the case of NCc1ccc(-c2ncc(OCC3CCNCC3)nc2-c2ccc(Oc3ccccc3)cc2)cc1 [Compound 44, (4-(3-(4-Phenoxyphenyl)-5-(piperidin-4-ylmethoxy)pyrazin-2-yl)phenyl)methanamine hydrochloride], the IC50 [1] is reported as greater than 50 µM.
For NCc1ccc(-c2ncc(OCC3CCNCC3)nc2-c2ccc(C3CCOCC3)cc2)cc1 [Compound 103, (4-(5-(Piperidin-4-ylmethoxy)-3-(4-(tetraHydro-2H-pyran-4-yl)phenyl)pyrazin-2-yl)phenyl)methanamine hydrochloride], the “EC68 against ZIKV” value (ZIKV-FLR) was 300 to 600 nM.
In the case of NCc1ccc(-c2ncc(OCC3CCNCC3)nc2-c2ccc(-c3cn[nH]c3)cc2)cc1 [Compound 46], the IC50 [1] is reported as 0.12 µM.
In the case of NCc1ccc(-c2ncc(OCC3CCNCC3)nc2-c2ccc(-c3ccoc3)cc2)cc1 [Compound 47, (4-(3-(4-(Furan-3-yl)phenyl)-5-(piperidin-4-ylmethoxy)pyrazin-2-yl)phenyl)methanamine hydrochloride], the “Inhibition of 5 selected human proteases” value [2] is given as “did not inhibit”, the “In vivo antiviral activity” value (ZIKV; mouse model of ZIKV infection) is given as “strong in vivo antiviral activity” and the “Survival of the experimental mice” value (ZIKV; mouse, 30 mg/kg for 3 days) is given as “significantly prolonged survivals”. For the same compound, the “Inhibition of replication of ZIKV strain HN16” value (ZIKV strain HN16) was “potently inhibit replication”, the EC68 (ZIKV-FLR; Zika virus, U-87 MG, 48 h, read-out: ZIKV-FLR EC68) was 0.3 to 0.6 µM and the “EC68 against ZIKV” value (ZIKV-FLR) was 300 to 600 nM. The “Inhibition of replication of dengue virus (serotype-2, strain K0049)” value [3] was “potently inhibit replication”.
NCc1ccc(-c2cc(CNCC3CCNCC3)sc2-c2ccc(CN)cc2)cc1 [Compound 20, ((5-(((Piperidin-4-ylmethyl)amino)methyl)thiophene-2,3-diyl)bis(4,1-phenylene))dimethanamine Hydrochloride] showed an IC50 [1] greater than 50 µM and an IC50 [4] greater than 50 µM.
For NCc1ccc(-c2ncc(OCC3CCNCC3)nc2-c2ccc(-c3ccncc3)cc2)cc1 [Compound 45, (4-(5-(Piperidin-4-ylmethoxy)-3-(4-(pyridin-4-yl)phenyl)pyrazin-2-yl)phenyl)methanamine hydrochloride], the IC50 [1] was greater than 50 µM.
With NCc1ccc(-c2ncc(OCC3CCNCC3)nc2-c2ccc(O)cc2)cc1 [Compound 50, 4-(3-(4-(Aminomethyl)phenyl)-6-(piperidin-4-ylmethoxy)pyrazin-2-yl)phenol hydrochloride] the “Inhibition of ZIKV replication” value (ZIKV-FLR; at 10 μM) was “did not inhibit ZIKV replication”.
Brc1ccc(-c2ncc(OCC3CCNCC3)nc2-c2ccc(Br)cc2)cc1 [Compound 1, 2,3-bis(4-Bromophenyl)-5-(piperidin-4-ylmethoxy)pyrazine hydrochloride] gave an IC50 [1] greater than 50 µM.
